What was measured:
[1] = Plasma protein binding (PPB), human; type: in vitro ADME
[2] = test system: Wnt signaling in HCT-116 cells; test: Wnt signaling assay (β-catenin-responsive luciferase reporter); type: cell-based; details: overnight
Description: Wnt signaling assay: The CRC cells stably expressing β-catenin-responsive promoter tethered to a luciferase reporter (pBARLS) or a mutant construct (pfuBARLS), as described previously, were seeded in 96-well plates. After 48 h of transfection, luciferase assays was performed using the Dual-Luciferase Kit (Promega) and normalized using protein content determined by the Bradford assay (Bio-Rad) as described previously^26-28.

RPE cells [3] = test: Microtubule sedimentation assay; type: cell-based
Description: (§1) Cell lysate preparation: For microtubule sedimentation assays, cells were treated as indicated in the figure legends, washed with PBS and incubated in 250 μl of microtubule sedimentation assay lysis buffer (100 mM PIPES pH 6.8, 2 M glycerol, 2 mM EGTA, 5 mM MgCl2, 0.1% Triton X-100) supplemented with 1 μM taxol, protease inhibitor cocktail (1:200, Abcam, ab201111) and phosphatase inhibitor cocktail (1:100, Abcam, ab201115) for 20 minutes at 37° C. Two hundred μl of scraped lysate was centrifuged at 21,000×g for 10 minutes at room temperature. Supernatants were saved as soluble fractions. Pellets were resuspended in 200 μl RIPA buffer (50 mM Tris HCl pH 8.0, 150 mM NaCl, 1% IGEPAL CA630, 0.05% deoxycholic acid) supplemented with 1.05% SDS, protease inhibitor cocktail (1:200) and phosphatase inhibitor cocktail (1:100) and incubated at 100° C. for 15 minutes. Pellet suspensions were centrifuged as before and supernatants were saved as pellet fractions.
(§2) Gel electrophoresis and immunoblotting: Microtubule sedimentation fractions and MLC2 analysis samples were separated by electrophoresis through tris-glycine and tricine polyacrylamide gels, respectively, which were transferred to PVDF membranes. Membranes with microtubule sedimentation fractions and MLC2 analysis samples were blocked in 5% milk in TBST and in 5% BSA in TBST, respectively. After overnight incubation with primary antibody at 4° C., the membranes were washed and incubated with secondary antibody for 1 hour at room temperature. Primary antibodies included anti-α-tubulin (1:2,000, Thermo Fisher Scientific, PA529444), anti-acetylated tubulin (1:1,000, Sigma-Aldrich, T7451), anti-phospho MYL9 (1:200, Thermo Fisher Scientific, PA517727), and anti-β-actin (1:5,000, Sigma-Aldrich, A1978). Secondary antibodies included Goat anti-Rabbit HRP (Thermo Fisher Scientific, 31460; 1:10,000 for anti-α-tubulin; 1:5,000 for anti-phospho MYL9), and Goat anti-Mouse HRP (Thermo Fisher Scientific, 62-6520; 1:5,000 for anti-acetylated tubulin; 1:10,000-1:20,000 for anti-β-actin). Membranes were placed into Pierce™ ECL Western Blotting Substrate (Thermo Fisher Scientific, 32106). Autoradiography film was exposed to each membrane for various times to ensure acquisition of non-saturated exposures. Band intensities were quantified from scanned films by densitometry using ImageJ.

FH-B cells [4] = test: Cell cycle analysis by flow cytometry; type: cell-based, human; details: asynchronous FH-B cells, 4 μM FQI1, 1 hour
Description: (§3) Cell cycle analysis by flow cytometry: After trypsinization, subsequent steps prior to staining were performed at 4° C. Cells in PBS were transferred dropwise into ethanol (final concentration of 70%) for overnight incubation. Fixed cells were washed with PBS and then incubated in 50 μg/ml propidium iodide and 10 μg/ml RNase A in PBS for 45 minutes at room temperature. After passage through a cell strainer, cell fluorescence was measured using a Becton Dickinson FACSCalibur. Ten thousand events were counted per sample. Histogram plots were generated using FlowJo.

RPE cells [5] = test: Cell spreading area and circularity by microscopy; type: cell-based
Description: Cells were washed as before, treated with Phalloidin-iFluor 488 Reagent (abcam, ab176753) for 1 hour in 1-5% BSA in PBS, followed by Hoechst 33342 (Thermo Fisher Scientific, H3570) for 5 minutes. Mounting medium (Fisher Scientific, P10144) and cover slips were applied onto dried cells. Individually discernible cells were imaged on an Olympus Fluoview 10i. Using ImageJ, the phalloidin channel was thresholded and area and circularity values were measured and integrated into swarmplots using Python's seaborn library.

FH-B cells [6] = test: Analysis of microtubule features by immunofluorescence; type: cell-based, human
Description: Analysis of microtubule features by immunofluorescence: Because Y-27632 diminishes FQI1-induced cell compaction (FIGS. 10C and 10D) without affecting microtubule levels (FIGS. 9A and 9B), cells were pretreated with Y-27632 in order to maintain overall cellular shape, facilitating capture of structural or positional impact of FQI1 on microtubules. In addition, only cells with cell spreading areas larger than 1000 μm^2 were considered. Cells were seeded overnight in high n-dishes, treated as indicated in the figure legends, fixed with formaldehyde as described above, blocked in 5% BSA in PBS and stained overnight at 4° C. with anti-γ-tubulin (1:500, Abcam, ab11316) and anti-α-tubulin (1:500, Fisher Scientific, 62204). Samples were then incubated in goat anti-rabbit Cy5 (1:1000, Invitrogen, A10523), goat anti-mouse Alexa Fluor 546 (1:1000, Thermo Fisher Scientific, A11003), and Phalloidin-iFluor 488 Reagent. Hoechst 33342 and mounting medium were applied, before acquiring Z stack images at 60× magnification on an Olympus Fluoview 10i microscope.
Using ImageJ, binary Z projections of Phalloidin and Hoechst channel stacks were merged with Z projections with average intensity of the α-tubulin channels. The Phalloidin channel was used as the region of interest for measurement of “integrated density” of the total α-tubulin intensity, which was plotted into swarmplots.
To assess distribution of visible microtubule ends, the Hoechst, γ-tubulin, and α-tubulin stacks were converted into Z projections with maximum intensity. The Hoechst and γ-tubulin Z projections were thresholded and all channels were merged. A line was generated between the γ-tubulin signal and the center of the nucleus to identify the axis of cell movement; a line perpendicular to the first line and running through the center point of the nucleus divided the cell into posterior and anterior portions. Visible microtubule ends were counted using the Cell Counter plugin, excluding unattached microtubule fragments.

RPE cells [7] = test: Cell cycle analysis by flow cytometry at end of wound healing; type: cell-based; details: 4 μM FQI1, 12-hour time-point
Description: as §3
All the samples, including a “0 hour” synchronized and an asynchronous sample, were harvested and prepared for flow cytometry, as described above. The proportion of cells in their respective cell cycle phases was determined by applying the Dean-Jett-Fox model in the FlowJo Cell Cycle analysis tool.

FH-B cells [8] = test: Microtubule sedimentation assay; type: cell-based, human
Description: as §1, §2

[9] = 4 μM FQI1 (15- and 30-minute pellets), 1 μM nocodazole or taxol 30 minutes

Row | Compound | fraction unbound [1] | Wnt activity at baseline ([2]; 0.1 μM up to 20 μM) | concentrations that suppressed Wnt activity induced by lithium chloride [2] [µM] | time after addition at which a drop in pelleted tubulin is observed (RPE cells [3]; 4 μM FQI1) [min] | microtubule stability and α-tubulin acetylation in the microtubule fraction (RPE cells [3]; [9]) | cell cycle phases by cellular DNA profiling (FH-B cells [4]) | cell spreading area (RPE cells [5]; 4 μM FQI1, 1 hour) | circularity (RPE cells [5]; 4 μM FQI1 or 1 μM nocodazole, 1 hour) | anterior-posterior patterning of visible microtubule ends (FH-B cells [6]; 4 μM FQI1) | overall α-tubulin intensity (FH-B cells [6]; 4 μM FQI1, 30 minutes, Y-27632 pretreated) | increase in the number of individually discernible microtubule ends (FH-B cells [6]; 4 μM FQI1, 30 minutes, vs vehicle) [fold] | cells with a 4n DNA content (RPE cells [7]) [%] | time after addition at which a drop in pelleted tubulin is observed (FH-B cells [8]; 4 μM FQI1) [min] | microtubule stability and α-tubulin acetylation in the microtubule fraction (FH-B cells [8]; [9])
1 | CCOc1cc(N(C)C)ccc1-c1cc(=O)[nH]c2cc3c(cc12)OCO3 [FQI2-34, 8-(4-(dimethylamino)-2-ethoxyphenyl)-[1,3]dioxolo[4,5-g]quinolin-6(5H)-one] | 0.1 | inhibited Wnt activity in a monotonically decreasing manner | ≥ 0.1 | – | – | – | – | – | – | – | – | – | – | –
2 | CCOc1ccccc1C1CC(=O)Nc2cc3c(cc21)OCO3 (centres unmarked) [FQI1, 8-(2-ethoxyphenyl)-7,8-dihydro-[1,3]dioxolo[4,5-g]quinolin-6(5H)-one] | – | – | – | 1 | increase in the amount of acetylated α-tubulin in the microtubule fraction | no apparent shift in cell cycle phases | did not respond to FQI1 with significant change in cell spreading area | significantly more circular in shape | largely unaffected | significant decrease in overall α-tubulin intensity | 2.7 | ~30 | 1 | increase in the amount of acetylated α-tubulin in the microtubule fraction
